According to ChEMBL document CHEMBL1126224, “Synthesis and biological activity of 4-(diphenylmethyl)-alpha-[(4-quinolinyloxy)methyl]-1-piperazineethanol and related compounds” (J Med Chem, 1992):
Active and inactive are the calls of the source. The rule behind the calls is not given here.

Key:
Rattus norvegicus [1] = organism: Rattus norvegicus; assay: The compound was tested for its cardiovascular activity in rat heart model. producing a 25% increase (EC25) in LV dP/dtmax (measure of contractility).; assay type: functional
Rattus norvegicus [2] = organism: Rattus norvegicus; assay: (§1) The compound was tested for its cardiovascular activity in rat heart model. producing a 25% increase (EC25) in CF(coronary flow); N = not active; assay type: functional, organism-based
Rattus norvegicus [3] = organism: Rattus norvegicus; assay: The compound was tested for its cardiovascular activity in rat heart model. producing a 50% increase (EC50) in LV dP/dtmax (measure of contractility).; assay type: functional, organism-based
Rattus norvegicus [4] = organism: Rattus norvegicus; assay: The compound was tested for its cardiovascular activity in rat heart model. producing a 25% increase (EC25) in LV dP/dtmax (measure of contractility); N = not active; assay type: functional, organism-based
Rattus norvegicus [5] = organism: Rattus norvegicus; assay: as §1; assay type: functional, organism-based; remark: listed apart in the source
Canis familiaris [6] = assay: Mean blood pressure was tested in anesthetized dogs. for a dose of 1.0 mg/kg; assay type: functional, Canis lupus familiaris
Canis familiaris [7] = assay: Total peripheral resistance was tested in anesthetized dogs for a dose of 0.3 mg/kg; assay type: functional, Canis lupus familiaris
Canis familiaris [8] = assay: The compound was tested for its cardiovascular activity in anesthetized dogs producing a 25% increase (EC25) in LV dP/dtmax (measure of contractility) for a dose of 0.3 mg/kg; assay type: functional, Canis lupus familiaris, Heart
Canis familiaris [9] = assay: Mean blood pressure was tested in anesthetized dogs. for a dose of 0.1 mg/kg; assay type: functional, Canis lupus familiaris
Oryctolagus cuniculus = organism: Oryctolagus cuniculus; assay: Calcium channel blocking activity in rabbit aortic rings; assay type: functional; details: Aorta
Canis familiaris [10] = assay: The compound was tested for its cardiovascular activity expressed as heart rate in beat/min in anesthetized dogs for a dose of 1.0 mg/kg; assay type: functional, Canis lupus familiaris
Canis familiaris [11] = assay: Total peripheral resistance was tested in anesthetized dogs for a dose of 0.1 mg/kg; assay type: functional, Canis lupus familiaris
Cavia porcellus = organism: Cavia porcellus; assay: Coronary flow activity in Langendorff perfused guinea pig heart; assay type: functional
Canis familiaris [12] = assay: The compound was tested for its cardiovascular activity expressed as heart rate in beat/min in anesthetized dogs for a dose of 0.1 mg/kg; assay type: functional, Canis lupus familiaris
Canis familiaris [13] = assay: The compound was tested for its cardiovascular activity in anesthetized dogs producing a 25% increase (EC25) in LV dP/dtmax (measure of contractility) for a dose of 1.0 mg/kg; assay type: functional, Canis lupus familiaris, Heart
Canis familiaris [14] = assay: The compound was tested for its cardiovascular activity in anesthetized dogs producing a 25% increase (EC25) in LV dP/dtmax (measure of contractility) for a dose of 0.1 mg/kg; assay type: functional, Canis lupus familiaris, Heart
Canis familiaris [15] = assay: Total peripheral resistance was tested in anesthetized dogs for a dose of 1.0 mg/kg; assay type: functional, Canis lupus familiaris
Canis familiaris [16] = assay: The compound was tested for its cardiovascular activity expressed as heart rate in beat/min in anesthetized dogs for a dose of 0.3 mg/kg; assay type: functional, Canis lupus familiaris
Canis familiaris [17] = assay: Mean blood pressure was tested in anesthetized dogs. for a dose of 0.3 mg/kg; assay type: functional, Canis lupus familiaris
Rattus norvegicus [18] = organism: Rattus norvegicus; assay: The compound was tested for its cardiovascular activity in rat heart model. producing a 25% increase (EC25) in CF(coronary flow).; assay type: functional
Rattus norvegicus [19] = organism: Rattus norvegicus; assay: The compound was tested for its cardiovascular activity in rat heart model. producing a 50% increase (EC50) in CF(coronary flow).; assay type: functional, organism-based
Rattus norvegicus [20] = organism: Rattus norvegicus; assay: The compound was tested for its cardiovascular activity in rat heart model. producing a 50% increase (EC50) in LV dP/dtmax (measure of contractility); NA = not achieved; assay type: functional, organism-based
Canis familiaris [21] = assay: Mean blood pressure was tested in anesthetized dogs. for a dose of 0.01 mg/kg; assay type: functional, Canis lupus familiaris
Rattus norvegicus [22] = organism: Rattus norvegicus; assay: The compound was tested for its cardiovascular activity in rat heart model. producing a 25% increase (EC50) in CF(coronary flow); NA = not achieved; assay type: functional, organism-based
Canis familiaris [23] = assay: The compound was tested for its cardiovascular activity in anesthetized dogs producing a 25% increase (EC25) in LV dP/dtmax (measure of contractility) for a dose of 0.01 mg/kg; assay type: functional, Canis lupus familiaris, Heart
Canis familiaris [24] = assay: Total peripheral resistance was tested in anesthetized dogs for a dose of 0.01 mg/kg; assay type: functional, Canis lupus familiaris
Canis familiaris [25] = assay: The compound was tested for its cardiovascular activity expressed as heart rate in beat/min in anesthetized dogs for a dose of 0.01 mg/kg; assay type: functional, Canis lupus familiaris
Rattus norvegicus [26] = organism: Rattus norvegicus; assay: The compound was tested for its cardiovascular activity in rat heart model. producing a 25% increase (EC25) in LV dP/dtmax (measure of contractility); NA = not achieved; assay type: functional, organism-based

For `Cl.OC(COc1ccc2ncccc2c1)CN1CCN(C(c2ccccc2)c2ccccc2)CC1` (configuration not stated), the EC25 (Rattus norvegicus [1]) was 480 nM, the EC25 (Rattus norvegicus [2]) was “inactive” and the EC50 (Rattus norvegicus [3]) was 800 nM.

For `Cc1cc(OCC(O)CN2CCc3ccccc3C2)c2ccccc2n1` (configuration not stated), the EC25 (Rattus norvegicus [4]) was “inactive” and the EC50 (Rattus norvegicus [5]) was “Not Active”.

Compound `OC(COc1ccnc2ccccc12)CN1CCN(C(c2ccccc2)c2ccccc2)CC1` (configuration not stated) has a Mean blood pressure (Canis familiaris [6]) of 3 mmHg, a Total peripheral resistance (Canis familiaris [7]) of 6.5 mmHg·min/mL and a Contractility (Canis familiaris [8]) of 40 mmHg s-1. The Mean blood pressure (Canis familiaris [9]) was 3 mmHg, the EC25 (Oryctolagus cuniculus) was > 100000 nM and the Heart rate (Canis familiaris [10]) was -2.6 beats min-1. For the same compound, the Total peripheral resistance (Canis familiaris [11]) was 3 mmHg·min/mL, the EC25 (Cavia porcellus) was 900 nM and the Heart rate (Canis familiaris [12]) was -2 beats min-1. It also gave a Contractility (Canis familiaris [13]) of 115.5 mmHg s-1, a Contractility (Canis familiaris [14]) of 12 mmHg s-1 and an EC25 (Rattus norvegicus [1]) of 140 nM. For the same compound, the Total peripheral resistance (Canis familiaris [15]) was -17 mmHg·min/mL, the EC25 (Rattus norvegicus [2]) was “inactive” and the Heart rate (Canis familiaris [16]) was -3.5 beats min-1. The Mean blood pressure (Canis familiaris [17]) was 4.5 mmHg and the EC50 (Rattus norvegicus [3]) was 320 nM.

In the case of `OC(COc1cccc2cnccc12)CN1CCN(c2ccccc2SCc2ccccc2)CC1` (configuration not stated), the EC25 (Rattus norvegicus [4]) is reported as “inactive” and the EC25 (Rattus norvegicus [18]) is reported as 1000 nM.

In the case of `OC(COc1ccc2cccnc2c1)CN1CCN(C(c2ccccc2)c2ccccc2)CC1` (configuration not stated), the EC25 (Rattus norvegicus [18]) is reported as 160 nM, the EC25 (Rattus norvegicus [1]) is reported as 700 nM and the EC50 (Rattus norvegicus [19]) is reported as 1010 nM. For the same compound, the EC50 (Rattus norvegicus [20]) was “Not Active”.

`Cc1cc(OCC(O)CN2CCN(C(c3ccccc3)c3ccccc3)CC2)c2ccccc2n1.Cl.O` (configuration not stated) was tested, and the EC25 (Rattus norvegicus [18]) was 800 nM.

For `OC(COc1cccc2[nH]ccc12)CN1CCN(C(c2ccccc2)c2ccccc2)CC1` (configuration not stated), the EC25 (Rattus norvegicus [4]) was “inactive”, the EC25 (Rattus norvegicus [18]) was 120 nM and the EC50 (Rattus norvegicus [19]) was 2500 nM.

`OC(COc1cccc2cnccc12)CN1CCN(C(c2ccccc2)c2ccccc2)CC1` (configuration not stated) was tested, and the EC25 (Rattus norvegicus [4]) was “inactive”, the EC25 (Rattus norvegicus [18]) was 200 nM and the EC50 (Rattus norvegicus [19]) was 1500 nM.

`N#Cc1cc2c(OCC(O)CN3CCN(C(c4ccccc4)c4ccccc4)CC3)cccc2[nH]1` (configuration not stated) was tested, and the Mean blood pressure (Canis familiaris [6]) was -21 mmHg, the Mean blood pressure (Canis familiaris [9]) was 2.3 mmHg and the EC25 (Oryctolagus cuniculus) was > 100000 nM. It also gave a Mean blood pressure (Canis familiaris [21]) of 4.3 mmHg, a Heart rate (Canis familiaris [10]) of -1 beats min-1 and a Total peripheral resistance (Canis familiaris [11]) of -17.3 mmHg·min/mL. The EC25 (Cavia porcellus) was 280 nM, the Heart rate (Canis familiaris [12]) was -0.66 beats min-1 and the Contractility (Canis familiaris [13]) was 83.3 mmHg s-1. The EC50 (Rattus norvegicus [22]) was “Not Active”, the Contractility (Canis familiaris [23]) was 9 mmHg s-1 and the EC25 (Rattus norvegicus [18]) was 300 nM. For the same compound, the Contractility (Canis familiaris [14]) was 21.3 mmHg s-1, the Total peripheral resistance (Canis familiaris [24]) was -9.6 mmHg·min/mL and the EC25 (Rattus norvegicus [1]) was 20 nM. For the same compound, the Total peripheral resistance (Canis familiaris [15]) was -24.5 mmHg·min/mL, the Heart rate (Canis familiaris [25]) was 0.66 beats min-1 and the EC50 (Rattus norvegicus [3]) was 35 nM.

In the case of `CCOC(=N)c1cc2c(OCC(O)CN3CCN(C(c4ccccc4)c4ccccc4)CC3)cccc2o1` (configuration not stated), the EC25 (Rattus norvegicus [4]) is reported as “inactive” and the EC25 (Rattus norvegicus [18]) is reported as 1000 nM.

`Oc1nccc2c(OCC(O)CN3CCN(C(c4ccccc4)c4ccccc4)CC3)cccc12` (configuration not stated) showed an EC25 (Rattus norvegicus [18]) of 150 nM.

`OC(COc1cccc2ncccc12)CN1CCN(C(c2ccccc2)c2ccccc2)CC1` (configuration not stated) was tested, and the EC25 (Rattus norvegicus [18]) was 800 nM, the EC25 (Rattus norvegicus [26]) was “inactive” and the EC50 (Rattus norvegicus [19]) was 2000 nM.

`OC(COc1ccnc2cc(C(F)(F)F)ccc12)CN1CCN(C(c2ccccc2)c2ccccc2)CC1` (configuration not stated) was tested, and the EC25 (Rattus norvegicus [4]) was “inactive”, the EC25 (Rattus norvegicus [18]) was 200 nM and the EC50 (Rattus norvegicus [19]) was 400 nM.

With `N#Cc1cc2c(OCC(O)CN3CCN(C(c4ccccc4)c4ccccc4)CC3)cccc2o1` (configuration not stated) the Mean blood pressure (Canis familiaris [6]) was -14.5 mmHg, the Total peripheral resistance (Canis familiaris [7]) was -8.66 mmHg·min/mL and the Contractility (Canis familiaris [8]) was 9.3 mmHg s-1. For the same compound, the Mean blood pressure (Canis familiaris [9]) was -0.66 mmHg, the EC25 (Oryctolagus cuniculus) was > 100000 nM and the Heart rate (Canis familiaris [10]) was -3.33 beats min-1. It also gave a Total peripheral resistance (Canis familiaris [11]) of -0.66 mmHg·min/mL, an EC25 (Cavia porcellus) of 2250 nM and a Heart rate (Canis familiaris [12]) of 0 beats min-1. The Contractility (Canis familiaris [13]) was 30.3 mmHg s-1, the EC25 (Rattus norvegicus [18]) was 100 nM and the Contractility (Canis familiaris [14]) was 2 mmHg s-1. It also gave an EC25 (Rattus norvegicus [1]) of 100 nM, a Total peripheral resistance (Canis familiaris [15]) of -21.7 mmHg·min/mL and a Heart rate (Canis familiaris [16]) of -1.66 beats min-1. It also gave an EC50 (Rattus norvegicus [19]) of 3000 nM, a Mean blood pressure (Canis familiaris [17]) of -7.3 mmHg and an EC50 (Rattus norvegicus [3]) of 420 nM.

`Cc1cc(OCC(O)Cn2cnc3ccccc32)c2ccccc2n1` (configuration not stated) was tested, and the EC25 (Rattus norvegicus [4]) was “inactive” and the EC50 (Rattus norvegicus [5]) was “Not Active”.
